Experimental data from ChEMBL document CHEMBL5550160, “Leveraging a rationally designed veliparib-based anilide eliciting anti-leukemic effects for the design of pH-responsive polymer nanoformulation” (Eur J Med Chem, 2024).
The source made the active and inactive calls. The calls are words filed in the database; no cut-off is given here.

Columns and labels:
HL-60 [1] = assay: Induction of apoptosis in human HL-60 cells assessed as nuclear fragmentation at 0.5 to 1 times IC50 by DAPI staining based microscopic analysis; assay type: functional, cell-based
[2] = molecular target: Histone deacetylase 4 (Homo sapiens) (UniProt P56524); assay: Inhibition of HDAC4 (unknown origin) assessed as residual activity at 1 x 10^-5M (reference value: 98.90%); conditions: dose 1.0 10^-5M
Chain of Histone deacetylase 4 (Homo sapiens) (P56524 whole entry): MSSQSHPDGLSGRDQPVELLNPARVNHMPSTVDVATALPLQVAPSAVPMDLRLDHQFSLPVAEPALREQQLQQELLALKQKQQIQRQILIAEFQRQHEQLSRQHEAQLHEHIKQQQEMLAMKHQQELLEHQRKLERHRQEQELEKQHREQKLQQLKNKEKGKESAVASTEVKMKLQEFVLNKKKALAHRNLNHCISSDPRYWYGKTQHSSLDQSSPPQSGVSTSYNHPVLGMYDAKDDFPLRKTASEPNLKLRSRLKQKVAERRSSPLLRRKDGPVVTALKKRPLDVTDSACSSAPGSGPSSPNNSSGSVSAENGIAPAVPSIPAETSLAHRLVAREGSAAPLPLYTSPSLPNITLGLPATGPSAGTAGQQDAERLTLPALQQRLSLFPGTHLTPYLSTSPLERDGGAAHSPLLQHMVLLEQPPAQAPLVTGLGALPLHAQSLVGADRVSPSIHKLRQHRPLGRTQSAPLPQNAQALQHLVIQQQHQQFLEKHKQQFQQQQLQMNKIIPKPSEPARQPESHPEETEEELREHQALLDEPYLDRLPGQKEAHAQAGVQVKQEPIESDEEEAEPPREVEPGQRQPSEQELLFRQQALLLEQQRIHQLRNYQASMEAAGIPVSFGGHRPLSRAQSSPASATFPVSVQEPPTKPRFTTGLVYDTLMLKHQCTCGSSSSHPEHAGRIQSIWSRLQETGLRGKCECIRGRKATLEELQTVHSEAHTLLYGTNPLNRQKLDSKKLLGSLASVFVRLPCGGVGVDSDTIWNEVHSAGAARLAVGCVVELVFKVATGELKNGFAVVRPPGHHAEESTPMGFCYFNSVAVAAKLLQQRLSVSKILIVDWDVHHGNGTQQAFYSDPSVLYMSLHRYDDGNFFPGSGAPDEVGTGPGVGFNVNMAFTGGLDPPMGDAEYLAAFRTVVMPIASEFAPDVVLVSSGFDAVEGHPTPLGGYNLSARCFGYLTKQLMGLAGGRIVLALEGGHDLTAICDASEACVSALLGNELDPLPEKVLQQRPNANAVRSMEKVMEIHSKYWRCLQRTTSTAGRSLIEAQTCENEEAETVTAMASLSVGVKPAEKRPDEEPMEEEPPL

[3] = molecular target: T1, Polyamine deacetylase HDAC10 (Homo sapiens) (UniProt Q969S8); assay: Inhibition of HDAC10 (unknown origin) assessed as residual activity at 1.52 x 10^-9M (reference value: 101.54%); conditions: dose 1.52 10^-9M
T1 sequence (whole entry): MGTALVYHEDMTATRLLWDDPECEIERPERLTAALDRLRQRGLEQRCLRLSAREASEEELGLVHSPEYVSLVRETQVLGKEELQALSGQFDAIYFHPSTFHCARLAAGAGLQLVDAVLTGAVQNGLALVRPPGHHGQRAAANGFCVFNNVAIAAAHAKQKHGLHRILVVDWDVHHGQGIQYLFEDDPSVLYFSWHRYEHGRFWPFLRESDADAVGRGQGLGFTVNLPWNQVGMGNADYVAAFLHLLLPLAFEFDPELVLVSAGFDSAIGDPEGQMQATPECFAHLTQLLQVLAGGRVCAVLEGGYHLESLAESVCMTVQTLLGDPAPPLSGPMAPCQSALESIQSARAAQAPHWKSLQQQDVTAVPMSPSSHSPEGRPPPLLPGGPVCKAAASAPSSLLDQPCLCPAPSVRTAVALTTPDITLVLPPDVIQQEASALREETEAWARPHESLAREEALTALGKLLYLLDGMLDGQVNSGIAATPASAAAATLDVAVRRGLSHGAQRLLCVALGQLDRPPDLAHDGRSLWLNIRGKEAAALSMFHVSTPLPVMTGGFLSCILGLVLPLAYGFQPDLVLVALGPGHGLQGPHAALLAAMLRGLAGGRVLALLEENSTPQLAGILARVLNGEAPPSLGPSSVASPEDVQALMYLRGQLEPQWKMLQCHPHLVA

[4] = molecular target: Histone deacetylase 4 (Homo sapiens) (UniProt P56524); assay: Inhibition of HDAC4 (unknown origin) assessed as residual activity at 5.08 x 10^-10M (reference value: 98.90%); conditions: dose 5.08 10^-10M
[5] = molecular target: T1, Polyamine deacetylase HDAC10 (Homo sapiens); assay: Inhibition of HDAC10 (unknown origin) assessed as residual activity at 1.37 x 10^-8M (reference value: 101.54%); conditions: dose 1.37 10^-8M
[6] = molecular target: T2, Histone deacetylase 8 (Homo sapiens) (UniProt Q9BY41); assay: Inhibition of HDAC8 (unknown origin) assessed as residual activity at 1.52 x 10^-9M (reference value: 100%); conditions: dose 1.52 10^-9M
T2 sequence (whole entry): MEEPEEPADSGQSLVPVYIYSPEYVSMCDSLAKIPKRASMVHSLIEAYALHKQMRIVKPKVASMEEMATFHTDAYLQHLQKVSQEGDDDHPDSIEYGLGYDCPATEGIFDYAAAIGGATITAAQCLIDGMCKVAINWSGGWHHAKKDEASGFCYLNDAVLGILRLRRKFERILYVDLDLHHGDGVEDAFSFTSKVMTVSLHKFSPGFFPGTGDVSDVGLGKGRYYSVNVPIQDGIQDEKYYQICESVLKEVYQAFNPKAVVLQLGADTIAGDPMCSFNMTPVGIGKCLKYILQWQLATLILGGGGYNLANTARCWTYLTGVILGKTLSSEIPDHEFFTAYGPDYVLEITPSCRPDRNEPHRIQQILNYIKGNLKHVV

[7] = molecular target: Histone deacetylase 4 (Homo sapiens) (UniProt P56524); assay: Inhibition of HDAC4 (unknown origin) assessed as residual activity at 4.12 x 10^-8M (reference value: 98.90%); conditions: dose 4.12 10^-8M
[8] = molecular target: T2, Histone deacetylase 8 (Homo sapiens); assay: Inhibition of HDAC8 (unknown origin) assessed as residual activity at 3.33 x 10^-6M (reference value: 100%); conditions: dose 3.33 10^-6M
Histone deacetylase 2 = Histone deacetylase 2 (Homo sapiens, UniProt Q92769); assay: Inhibition of HDAC2 (unknown origin) assessed as residual activity at 3.70 x 10^-7M (reference value: 99.81%); conditions: dose 3.7 10^-7M
Chain of Histone deacetylase 2 (Q92769 whole entry): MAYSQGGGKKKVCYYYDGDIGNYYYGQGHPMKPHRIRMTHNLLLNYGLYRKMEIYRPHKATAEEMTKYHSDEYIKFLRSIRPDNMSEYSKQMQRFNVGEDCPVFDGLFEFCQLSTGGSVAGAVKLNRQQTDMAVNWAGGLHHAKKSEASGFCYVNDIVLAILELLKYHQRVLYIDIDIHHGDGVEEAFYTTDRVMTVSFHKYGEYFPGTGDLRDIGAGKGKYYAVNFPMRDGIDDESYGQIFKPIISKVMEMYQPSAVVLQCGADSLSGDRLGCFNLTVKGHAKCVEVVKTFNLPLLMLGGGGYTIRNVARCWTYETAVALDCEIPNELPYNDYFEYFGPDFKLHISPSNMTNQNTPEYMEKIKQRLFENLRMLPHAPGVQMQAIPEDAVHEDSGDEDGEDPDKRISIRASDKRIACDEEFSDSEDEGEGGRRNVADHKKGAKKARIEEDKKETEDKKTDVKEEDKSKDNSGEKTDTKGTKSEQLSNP

[9] = molecular target: T2, Histone deacetylase 8 (Homo sapiens); assay: Inhibition of HDAC8 (unknown origin) assessed as residual activity at 1 x 10^-5M (reference value: 100%); conditions: dose 1.0 10^-5M
[10] = molecular target: T1, Polyamine deacetylase HDAC10 (Homo sapiens); assay: Inhibition of HDAC10 (unknown origin) assessed as residual activity at 1 x 10^-5M (reference value: 101.54%); conditions: dose 1.0 10^-5M
[11] = molecular target: T2, Histone deacetylase 8 (Homo sapiens); assay: Inhibition of HDAC8 (unknown origin) assessed as residual activity at 1.1 x 10^-6M (reference value: 100%); conditions: dose 1.1 10^-6M
[12] = molecular target: T3, Histone deacetylase 7 (Homo sapiens) (UniProt Q8WUI4); assay: Inhibition of HDAC7 (unknown origin) assessed as residual activity at 3.33 x 10^-6M (reference value: 102.66%); conditions: dose 3.33 10^-6M
T3 sequence (whole entry): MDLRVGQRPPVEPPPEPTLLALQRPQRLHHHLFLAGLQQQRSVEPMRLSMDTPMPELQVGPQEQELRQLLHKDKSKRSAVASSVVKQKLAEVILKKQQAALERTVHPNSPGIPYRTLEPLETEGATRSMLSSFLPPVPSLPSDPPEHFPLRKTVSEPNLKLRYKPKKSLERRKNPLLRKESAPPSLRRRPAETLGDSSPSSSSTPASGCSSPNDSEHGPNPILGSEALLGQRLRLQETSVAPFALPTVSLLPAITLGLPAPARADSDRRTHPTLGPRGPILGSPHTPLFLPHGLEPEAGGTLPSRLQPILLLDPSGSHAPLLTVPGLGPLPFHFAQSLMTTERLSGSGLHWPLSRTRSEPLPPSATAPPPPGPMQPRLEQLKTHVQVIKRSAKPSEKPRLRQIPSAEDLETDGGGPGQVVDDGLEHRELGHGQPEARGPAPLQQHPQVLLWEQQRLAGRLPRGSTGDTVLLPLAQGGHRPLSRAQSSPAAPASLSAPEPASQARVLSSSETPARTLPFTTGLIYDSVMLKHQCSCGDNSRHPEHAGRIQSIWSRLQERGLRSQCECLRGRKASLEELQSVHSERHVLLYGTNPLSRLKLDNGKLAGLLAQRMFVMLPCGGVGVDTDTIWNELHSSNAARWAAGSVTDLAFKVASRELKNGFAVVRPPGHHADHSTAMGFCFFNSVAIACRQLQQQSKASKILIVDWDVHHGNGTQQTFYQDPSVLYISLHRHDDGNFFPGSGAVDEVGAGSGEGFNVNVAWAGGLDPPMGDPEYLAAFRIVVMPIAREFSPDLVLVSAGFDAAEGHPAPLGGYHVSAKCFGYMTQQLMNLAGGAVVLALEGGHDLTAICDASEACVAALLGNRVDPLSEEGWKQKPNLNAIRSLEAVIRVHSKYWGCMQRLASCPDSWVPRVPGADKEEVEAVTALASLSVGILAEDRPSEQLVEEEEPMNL

HL-60 [13] = assay: Induction of cell cycle arrest in G0/G1 phase in human HL-60 cells at 0.5 to 1 times IC50 by PI staining based flow cytometry analysis; assay type: functional

Question: With `NC(=O)c1cccc2[nH]c(-c3ccc(NCc4ccc(C(=O)Nc5ccccc5N)cc4)cc3)nc12` as the compound, how does the Activity (HL-60 [1]) read?
Answer: The Activity was “inactive”.

Question: And the Activity [2]?
Answer: The Activity was 127%.

Question: What about the Activity [3] of the same compound?
Answer: The Activity was 97.3%.

Question: And the Activity [4]?
Answer: The Activity was 96.7%.

Question: What about the Activity [5] of the same compound?
Answer: The Activity was 97.7%.

Question: What about the Activity [6] of the same compound?
Answer: Its Activity is 103%.

Question: What about the Activity [7] of the same compound?
Answer: Its Activity is 96%.

Question: And the Activity [8]?
Answer: The Activity was 96.9%.

Question: And the Activity (Histone deacetylase 2)?
Answer: The Activity was 33.5%.

Question: What about the Activity [9] of the same compound?
Answer: The Activity was 69.5%.

Question: And the Activity [10]?
Answer: The Activity was 72.2%.

Question: What about the Activity [11] of the same compound?
Answer: Its Activity is 104%.

Question: And the Activity [12]?
Answer: The Activity was 95.6%.

Question: What about the Activity (HL-60 [13]) of the same compound?
Answer: Its Activity is “Dose-Dependent Effect”.
